Results reported in US10433551B2, “3-pyridyloxyphenyldihydrouracil compound and use thereof” (Sumitomo Chemical Company, Limited, priority 2016, dated 2019).

Columns and labels:
Format in all cases: cell-based
[1] = tested on: damping-off fungi (Pythium ultimum); assay: Test for controlling damping-off fungi, growth in titer plate (absorbance 600 nm); conditions: 1 μL in 150 μL Czapek medium with mycelial suspension, 23° C., five days
Protocol: (§1) In the test examples 1 to 4, a non-treated area means an area in which a test was conducted in the same manner as each test example, except that dimethyl sulfoxide was dispensed in place of the present compound diluted with dimethyl sulfoxide.
(§2) Four point five (4.5) milligrams of the present compound was diluted with 100 μL of dimethyl sulfoxide. One (1) μL portion of the diluted liquid was dispensed into a titer plate (96 wells), and thereto was then dispensed 150 μL of a potato dextrose broth medium (PDB medium) containing zoospores of cucumber phytophthora blight fungi (Phytophthora capsici). This plate was cultured at 27° C. for three days, thereby allowing the cucumber phytophthora blight fungi to undergo proliferation, and the absorbance at 600 nm of each well of the titer plate was then measured to determine a degree of growth of the cucumber phytophthora blight fungi. The efficacy was calculated from the determined degree of growth by the below-mentioned “Equation 1”. […]
(§3) Four point five (4.5) milligrams of the present compound was diluted with 100 μL of dimethyl sulfoxide. […] This plate was cultured at 23° C. for five days, thereby allowing the damping-off fungi to undergo proliferation, and the absorbance at 600 nm of each well of the titer plate was then measured to determine a degree of growth of the damping-off fungi. […]

[2] = tested on: barley scald fungi (Rhynchosporium secalis); assay: Test for controlling barley scald fungi, growth in titer plate (absorbance 600 nm); conditions: Test Example 4; 4.5 mg in 100 μL DMSO, 1 μL in 150 μL PDB medium with spores; 18° C., seven days
Protocol: as §1, §2
as §3, with “at 18°” for “at 23°”, “for seven” for “for five”, “the barley scald” for “the damping-off”

[3] = tested on: cucumber phytophthora blight fungi (Phytophthora capsici); assay: Test for controlling cucumber phytophthora blight fungi, growth in titer plate (absorbance 600 nm); conditions: Test Example 1; 4.5 mg in 100 μL DMSO, 1 μL in 150 μL PDB medium with zoospores; 27° C., three days
Protocol: as §1
Four point five (4.5) milligrams of the present compound was diluted with 100 μL of dimethyl sulfoxide. One (1) μL portion of the diluted liquid was dispensed into a titer plate (96 wells), and thereto was then dispensed 150 μL of a potato dextrose broth medium (PDB medium) containing zoospores of cucumber phytophthora blight fungi (Phytophthora capsici). This plate was cultured at 27° C. for three days, thereby allowing the cucumber phytophthora blight fungi to undergo proliferation, and the absorbance at 600 nm of each well of the titer plate was then measured to determine a degree of growth of the cucumber phytophthora blight fungi. The efficacy was calculated from the determined degree of growth by the below-mentioned “Equation 1”. As a result, the efficacy of the Present compound was 90% or more. Efficacy=100×(X−Y)/X “Equation 1” where X: Degree of fungal growth in non-treated area Y: Degree of fungal growth in treated area

Measured: efficacy

CCOC(=O)COc1ncccc1Oc1cc(N2C(=O)CC(O)(C(F)(F)F)NC2=O)c(F)cc1Cl (stereo not shown) [Present compound]
≥ 90%: [1]; Test Example 2, 4.5 mg in 100 μL DMSO | [1]; Test Example 3, 1.12 mg in 100 μL DMSO | [2] | [3]
